In patent US20260224723A1, “ANTI-B7H3 ANTIBODY-DRUG CONJUGATE AND USE THEREOF” (Duality Biologics (Suzhou) Co., Ltd., priority 2022, published 2026):

Assay: Pharmacokinetic study, single intravenous infusion in cynomolgus monkeys
Details: both, cynomolgus monkey, in vivo
Protocol: 18 cynomolgus monkeys (half female and half male) were weighed one day before administration, stratified based on the weight, and then randomly divided into 3 groups (3 females and 3 males/group): a low dose group (1 mg/kg), a medium dose group (3 mg/kg), and a high dose group (10 mg/kg). […] Blood was collected from the forelimb veins of cynomolgus monkeys in each group, and treated samples of the blood collected at 0 h before and 0.5 […], and 672 h after the administration were used as PK samples. After the blood collection at each time point was completed, serum was obtained by centrifugation for sample analysis.

CC[C@@]1(O)C(=O)OCc2c1cc1n(c2=O)Cc2c-1nc1cc(F)c(C)c3c1c2[C@@H](NC(=O)C[C@H](C)O)CC3 [P-III-30]
AUC0-t (3 mg/kg): 1.07 ng·h/mL | Cmax (3 mg/kg): 0.133 ng/mL | AUC0-t (10 mg/kg): 44.5 ng·h/mL
